Laboratory results: the supplement of paper PMC10627819

Experiments:
S. pneumoniae D39V [1] = assay: Bliss interaction score (quartile over a dose matrix) (fitness difference); higher = more antagonism (negative = synergy)
How it was run: (§1)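 The Bliss score is observed fitness minus expected fitness, where the expected value is the product of single-drug fitness values inferred from combination data. Fitness is OD595 at entry into stationary phase normalised to the plate's robust no-drug mean and capped at 1. Scores are reported as quartiles spanning technical, biological and donor/recipient replicates.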

B. subtilis 168 [2] = assay: as above
How it was run: as §1

S. aureus Newman [3] = assay: as above
How it was run: as §1

S. aureus DSM 20231 = assay: as above
How it was run: as §1

S. pneumoniae D39V [4] = assay: fitness (endpoint OD595 vs no drug) (fraction); higher = more growth
How it was run: (§2)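 Volumes were 30 µl per well, or 55 µl for S. pneumoniae, in 384-well plates inoculated at OD595 0.01. Media were TSB, LB Lennox or CY at 37 °C, and OD595 was read every 30 min for 14 h with first-reading background subtraction. Fitness is the ratio of optical density at stationary-phase entry to the robust mean of no-drug controls. That ratio is capped at 1.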

B. subtilis 168 [5] = assay: as above
How it was run: as §2

S. aureus Newman [6] = assay: as above
How it was run: as §2
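Wherever Bliss interaction score (quartile over a dose matrix) is given: first quartile when negative (synergy) and third quartile when positive (antagonism).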

With `CO/N=C(\C(=O)N[C@@H]1C(=O)N2C(C(=O)O)=C(COC(N)=O)CS[C@H]12)c1ccco1` [Cefuroxime] + CC[C@H]1OC(=O)[C@H](C)C(=O)[C@H](C)[C@@H](O[C@@H]2O[C@H](C)C[C@H](N(C)C)[C@H]2O)[C@](C)(OC)C[C@@H](C)C(=O)[C@H](C)[C@H]2N(CCCCn3cnc(-c4cccnc4)c3)C(=O)O[C@]12C [Telithromycin] the Bliss interaction score (S. pneumoniae D39V [1]) was 0.0493, the Bliss interaction score (B. subtilis 168 [2]) was 0.0752 and the Bliss interaction score (S. aureus Newman [3]) was 0.272. The Bliss interaction score (S. aureus DSM 20231) was -0.0813.
`C[C@@H]1O[C@@H]1P(=O)(O)O` [Fosfomycin] + CC(=O)O[C@H]1C[C@@]2(C)[C@@H](C[C@@H](O)[C@H]3[C@@]4(C)CC[C@@H](O)[C@@H](C)[C@@H]4CC[C@@]32C)/C1=C(\CCC=C(C)C)C(=O)O [Fusidic acid] gave a Bliss interaction score (S. pneumoniae D39V [1]) of 0.0774, a Bliss interaction score (B. subtilis 168 [2]) of 0.0895 and a Bliss interaction score (S. aureus Newman [3]) of -0.0179. For the same compound, the Bliss interaction score (S. aureus DSM 20231) was 0.0457.
With `O=C(O)c1cn(C2CC2)c2cc(N3CCNCC3)c(F)cc2c1=O` [Ciprofloxacin] + Cc1onc(-c2ccccc2)c1C(=O)N[C@@H]1C(=O)N2[C@@H]1SC(C)(C)[C@@H]2C(=O)O [Oxacillin] the Bliss interaction score (B. subtilis 168 [2]) was -0.0871, the Bliss interaction score (S. aureus Newman [3]) was 0.0816 and the Bliss interaction score (S. aureus DSM 20231) was 0.0341. It also gave a fitness (S. pneumoniae D39V [4]; first compound 0.125 µg/mL, partner 0.005 µg/mL) of 0.987, a fitness (S. pneumoniae D39V [4]; first compound 0.125 µg/mL, partner 0.01 µg/mL) of 0.969 and a fitness (S. pneumoniae D39V [4]; first compound 0.125 µg/mL, partner 0.02 µg/mL) of 0.915. For the same compound, the fitness (S. pneumoniae D39V [4]; first compound 0.125 µg/mL, partner 0.04 µg/mL) was 0.535, the fitness (S. pneumoniae D39V [4]; first compound 0.25 µg/mL, partner 0.005 µg/mL, one replicate) was 0.989 and the fitness (S. pneumoniae D39V [4]; first compound 0.25 µg/mL, partner 0.01 µg/mL) was 0.934. It also gave a fitness (S. pneumoniae D39V [4]; first compound 0.25 µg/mL, partner 0.02 µg/mL) of 0.844, a fitness (S. pneumoniae D39V [4]; first compound 0.25 µg/mL, partner 0.04 µg/mL) of 0.424 and a fitness (S. pneumoniae D39V [4]; first compound 0.5 µg/mL, partner 0.005 µg/mL) of 0.815. The fitness (S. pneumoniae D39V [4]; first compound 0.5 µg/mL, partner 0.04 µg/mL) was 0.354, the fitness (B. subtilis 168 [5]; first compound 0.0098 µg/mL, partner 0.002 µg/mL) was 0.894 and the fitness (B. subtilis 168 [5]; first compound 0.0098 µg/mL, partner 0.004 µg/mL) was 0.866. For the same compound, the fitness (B. subtilis 168 [5]; first compound 0.0098 µg/mL, partner 0.0078 µg/mL, one replicate) was 0.976, the fitness (B. subtilis 168 [5]; first compound 0.0098 µg/mL, partner 0.008 µg/mL) was 0.863 and the fitness (B. subtilis 168 [5]; first compound 0.0098 µg/mL, partner 0.0155 µg/mL, one replicate) was 0.905. The fitness (B. subtilis 168 [5]; first compound 0.0098 µg/mL, partner 0.031 µg/mL, one replicate) was 0.965, the fitness (B. subtilis 168 [5]; first compound 0.0098 µg/mL, partner 0.075 µg/mL, one replicate) was 0.375 and the fitness (B. subtilis 168 [5]; first compound 0.0195 µg/mL, partner 0.002 µg/mL) was 0.748. The fitness (B. subtilis 168 [5]; first compound 0.0195 µg/mL, partner 0.004 µg/mL) was 0.693, the fitness (B. subtilis 168 [5]; first compound 0.0195 µg/mL, partner 0.0078 µg/mL, one replicate) was 0.814 and the fitness (B. subtilis 168 [5]; first compound 0.0195 µg/mL, partner 0.008 µg/mL) was 0.61. It also gave a fitness (B. subtilis 168 [5]; first compound 0.0195 µg/mL, partner 0.0155 µg/mL, one replicate) of 0.779, a fitness (B. subtilis 168 [5]; first compound 0.0195 µg/mL, partner 0.031 µg/mL, one replicate) of 0.729 and a fitness (B. subtilis 168 [5]; first compound 0.0195 µg/mL, partner 0.075 µg/mL, one replicate) of 0.0252. It also gave a fitness (B. subtilis 168 [5]; first compound 0.0195 µg/mL, partner 0.15 µg/mL, one replicate) of 0.0469, a fitness (B. subtilis 168 [5]; first compound 0.0195 µg/mL, partner 0.3 µg/mL, one replicate) of 0.0517 and a fitness (B. subtilis 168 [5]; first compound 0.039 µg/mL, partner 0.002 µg/mL) of 0.0478. For the same compound, the fitness (B. subtilis 168 [5]; first compound 0.039 µg/mL, partner 0.004 µg/mL) was 0.0457, the fitness (B. subtilis 168 [5]; first compound 0.039 µg/mL, partner 0.0078 µg/mL, one replicate) was 0.136 and the fitness (B. subtilis 168 [5]; first compound 0.039 µg/mL, partner 0.008 µg/mL) was 0.054. For the same compound, the fitness (B. subtilis 168 [5]; first compound 0.039 µg/mL, partner 0.0155 µg/mL, one replicate) was 0.191, the fitness (B. subtilis 168 [5]; first compound 0.039 µg/mL, partner 0.031 µg/mL, one replicate) was 0.0978 and the fitness (B. subtilis 168 [5]; first compound 0.039 µg/mL, partner 0.075 µg/mL, one replicate) was 0.0437. It also gave a fitness (B. subtilis 168 [5]; first compound 0.039 µg/mL, partner 0.15 µg/mL, one replicate) of 0.0478, a fitness (B. subtilis 168 [5]; first compound 0.039 µg/mL, partner 0.3 µg/mL, one replicate) of 0.0488 and a fitness (S. aureus Newman [6]; first compound 0.0375 µg/mL, partner 0.0156 µg/mL) of 0.622. It also gave a fitness (S. aureus Newman [6]; first compound 0.0375 µg/mL, partner 0.0312 µg/mL) of 0.612, a fitness (S. aureus Newman [6]; first compound 0.0375 µg/mL, partner 0.0625 µg/mL) of 0.573 and a fitness (S. aureus Newman [6]; first compound 0.075 µg/mL, partner 0.0156 µg/mL) of 0.635. It also gave a fitness (S. aureus Newman [6]; first compound 0.075 µg/mL, partner 0.0312 µg/mL) of 0.618, a fitness (S. aureus Newman [6]; first compound 0.075 µg/mL, partner 0.0625 µg/mL) of 0.494 and a fitness (S. aureus Newman [6]; first compound 0.15 µg/mL, partner 0.0156 µg/mL) of 0.0645. For the same compound, the fitness (S. aureus Newman [6]; first compound 0.15 µg/mL, partner 0.0312 µg/mL) was 0.0732 and the fitness (S. aureus Newman [6]; first compound 0.15 µg/mL, partner 0.0625 µg/mL) was 0.0443.
In the case of `CO/N=C(\C(=O)N[C@@H]1C(=O)N2C(C(=O)O)=C(COC(N)=O)CS[C@H]12)c1ccco1` [Cefuroxime] + O=C(O)[C@H]1/C(=C/CO)O[C@@H]2CC(=O)N21 [Clavulanic], the Bliss interaction score (S. pneumoniae D39V [1]) is reported as -0.0363 and the Bliss interaction score (B. subtilis 168 [2]) is reported as -0.0417.
`O=C(O)c1cn(C2CC2)c2cc(N3CCNCC3)c(F)cc2c1=O` [Ciprofloxacin] + CCCSc1nc(N[C@@H]2C[C@H]2c2ccc(F)c(F)c2)c2nnn([C@@H]3C[C@H](OCCO)[C@@H](O)[C@H]3O)c2n1 [Ticagrelor] gave a Bliss interaction score (S. aureus DSM 20231) of -0.375.
`CC(=O)Oc1cccc2c1C(=O)c1c(OC(C)=O)cc(C(=O)O)cc1C2=O` [Diacerein] + C[C@H]1COc2c(N3CCN(C)CC3)c(F)cc3c(=O)c(C(=O)O)cn1c23 [Levofloxacin] was tested, and the Bliss interaction score (S. aureus DSM 20231) was -0.237.
Compound `CC(=O)Oc1ccccc1C(=O)O` [Acetylsalicylicacid] + Cc1c(Cl)cccc1Nc1ccccc1C(=O)O [Tolfenamic] has a Bliss interaction score (S. aureus DSM 20231) of -0.263.
`CC(=O)Oc1ccccc1C(=O)O` [Acetylsalicylicacid] + CCCCc1nc(Cl)c(CO)n1Cc1ccc(-c2ccccc2-c2nnn[nH]2)cc1 [Losartan] showed a Bliss interaction score (S. aureus DSM 20231) of 0.178.
With `CC(=O)Oc1ccccc1C(=O)O` [Acetylsalicylicacid] + CC[C@H](c1ccc(O)cc1)[C@@H](CC)c1ccc(O)cc1 [Hexestrol] the Bliss interaction score (S. aureus DSM 20231) was -0.455.
For `O=C(O)c1cn(C2CC2)c2cc(N3CCNCC3)c(F)cc2c1=O` [Ciprofloxacin] + Cc1c(Cl)cccc1Nc1ccccc1C(=O)O [Tolfenamic], the Bliss interaction score (S. aureus DSM 20231) was -0.188.
For `O=C(O)c1cc(-c2ccc(F)cc2F)ccc1O` [Diflunisal] + CN(C)C(=O)C(CCN1CCC(O)(c2ccc(Cl)cc2)CC1)(c1ccccc1)c1ccccc1 [Loperamide], the Bliss interaction score (S. aureus DSM 20231) was 0.356.
Work on `CN(C)[C@@H]1C(O)=C(C(N)=O)C(=O)[C@@]2(O)C(O)=C3C(=O)c4c(O)ccc(Cl)c4[C@@](C)(O)[C@H]3C[C@@H]12` [Clortetracycline] + CCCc1nc2c(C)cc(-c3nc4ccccc4n3C)cc2n1Cc1ccc(-c2ccccc2C(=O)O)cc1 [Telmisartan] yielded a Bliss interaction score (S. aureus DSM 20231) of -0.261.
`CN(C)[C@@H]1C(O)=C(C(N)=O)C(=O)[C@@]2(O)C(O)=C3C(=O)c4c(O)ccc(Cl)c4[C@@](C)(O)[C@H]3C[C@@H]12` [Clortetracycline] + COc1ccc(CCN(C)CCCC(C#N)(c2ccc(OC)c(OC)c2)C(C)C)cc1OC [Verapamil] showed a Bliss interaction score (S. aureus DSM 20231) of 0.243.
In the case of `COCCOC(=O)C1=C(C)NC(C)=C(C(=O)OC/C=C/c2ccccc2)C1c1cccc([N+](=O)[O-])c1` (stereo not given) [Cilnidipine] + CC[C@H]1OC(=O)[C@H](C)[C@@H](O[C@H]2C[C@@](C)(OC)[C@@H](O)[C@H](C)O2)[C@H](C)[C@@H](O[C@@H]2O[C@H](C)C[C@H](N(C)C)[C@H]2O)[C@](C)(OC)C[C@@H](C)C(=O)[C@H](C)[C@@H](O)[C@]1(C)O [Clarithromycin], the Bliss interaction score (S. aureus DSM 20231) is reported as -0.196.
With `Cn1c(=O)c2c(ncn2C)n(C)c1=O` [Caffeine] + O=C(N[C@H](CO)[C@H](O)c1ccc([N+](=O)[O-])cc1)C(Cl)Cl [Chloramphenicol] the Bliss interaction score (S. aureus DSM 20231) was -0.3.
`CO/N=C(\C(=O)N[C@@H]1C(=O)N2C(C(=O)O)=C(COC(N)=O)CS[C@H]12)c1ccco1` [Cefuroxime] + C/C(=C\C(=O)OCCCCCCCCC(=O)O)C[C@@H]1OC[C@H](C[C@@H]2O[C@H]2[C@@H](C)[C@H](C)O)[C@@H](O)[C@H]1O [Pseudomonic acid] showed a Bliss interaction score (S. pneumoniae D39V [1]) of 0.0629 and a Bliss interaction score (B. subtilis 168 [2]) of 0.074.
